According to US10882860B2, “Treatment of osteoarthritis” (Samumed, LLC, priority 2015, dated 2021):

Experiments:
[1] = format: in vivo, beagle dogs; details: dog
Procedure: The local toxicology of Form 1 of the compound of Formula (I) in dogs was studied. The compound of Formula (I) (Form 1) was administered via single or multiple (9 times) intra-articular (IA) injections as a suspension composition in beagle dogs to evaluate local toxicity.
After IA injection, the right stifle joint was histologically evaluated for inflammation, cartilage health, bone density, etc. Toxicology was evaluated immediately after a single or multiple (3 or 9 once-monthly) IA injections.

Human MSCs = experiment: Chondrogenesis induction, Rhodamine B and Nile Red staining; format: cell-based
Procedure: Human MSCs were plated in 96-well plates in chondrogenic induction medium (Lonza; DMEM, dexamethasone, ascorbate, insulin-transferrin-selenium [ITS supplement], gentamycin-amphotericin [GA-1000], sodium pyruvate, proline and L-glutamine) and treated with the compound of Formula (I) in DMSO or TGFβ3 (20 μg/mL) as a positive control. Cells were incubated at 37° C., 5% CO2 for either 7 or 21 days, with media changes every 5 days. The cells were fixed using 4% formaldehyde (Electron Microscopy Sciences), and stained with 2 μg/mL Rhodamine B (Sigma-Aldrich) and 20 μM Nile Red (Sigma-Aldrich) (Johnson et al. (2012) Science 336(6082):717-721). The nodules were imaged (25 images per well for 96 well plates at 10× magnification) by excitation at 531 nm and emission at 625 nm and quantified using the Celllnsight CX5 (Thermo Scientific). The number of nodules in each well was normalized to the average of 6 DMSO treated wells on the same plate using Excel (Microsoft Inc.). The normalized averages (fold change over DMSO) of 6 replicate wells for each compound concentration were calculated.

secreted GAG = experiment: Immunosuppression in chondrocytes: GAG content (DMMB); format: cell-based, human; details: cells stimulated with TNF-α and oncostatin M or IL-1β; 72 hours; FIG. 20A
Procedure: Human MSCs were plated in 10 cm dishes in chondrogenic induction medium (Lonza; DMEM, dexamethasone, ascorbate, insulin-transferrin-selenium [ITS supplement], gentamycin-amphotericin [GA-1000], sodium pyruvate, proline and L-glutamine) and treated with TGF-β3 (20 μg/mL) to induce chondrogenic differentiation. Cells from 4 dishes were pooled and re-plated in 24-well plates in Chondrogenic Induction Medium and treated with various concentrations of the compound of Formula (I). 4 hours later, cells were stimulated by adding TNF-α (20 μg/mL)+Oncostatin M ([…]) or IL-1β (10 μg/mL) and incubated at 37° C., 5% CO2 for 72 hours. Chondrocytes were digested with papain (Sigma). GAG content was measured using the dimethylmethylene blue (DMMB) kit (Chondrex). Briefly, the digested chondrocytes were mixed with DMMB in formate buffer and absorbance at 535 nm was measured using Cytation 3 (Biotek). Nitric oxide was measured using Greiss reagent (Promega) according to manufacturer's protocol.

[2] = test system: subjects with moderately to severely symptomatic knee OA; experiment: Initial clinical study (first cohort, single IA injection); format: in vivo, human; design: Change in cartilage thickness: unit not given here
Procedure: Twenty-one subjects were enrolled in the first cohort of a clinical trial for the treatment of osteoarthritis. All subjects completed a minimum of 12 weeks of follow-up after treatment. This study was a first-in-human, multicenter, placebo-controlled, single-dose, dose-escalation safety study in subjects suffering from moderately to severely symptomatic knee OA. Subjects were treated with a single ultrasound-guided intra-articular injection of a suspension of a non-stoichiometric hydrate of Form I having between 1% and about 20% by weight water or placebo.
A single-use injectable composition containing the compound of Formula (I) suspended in a 0.5% sodium carboxymethylcellulose and 0.05% polysorbate 80 in 10 mM phosphate buffered saline solution, pH 7.4, was prepared. For this study, a dosage of 0.03-0.230 mg of the compound of Formula (I) was administered per 2 mL injection.
Subjects were evaluated using the following primary and secondary assessments:
1. Evaluation of the safety and tolerability of the therapeutic composition administered by intra-articular injection into the target knee joint of moderately to severely symptomatic osteoarthritis (OA) subjects. This included:
a) monitoring for treatment-emergent adverse events (AEs);
b) assessing bone loss by measuring bone biomarkers (cartilage oligomeric matrix protein [COMP], N-terminal propeptides of procollagen type I [PINP], and β-C-terminal telopeptide [β-CTX]) at Weeks 4 and 12 by computed tomography (CT) of both knee joints and at Week 12 after study medication injection compared to baseline; and
c) assessing bone marrow edema by magnetic resonance imaging (MRI) at Week 12 compared to baseline.
2. Assessment of the pharmacokinetic (PK) behavior of the compound of Formula (I) under the conditions of this study at Days 1, 2, 4, and 12.
Estimation of clinical responses to treatment with the therapeutic composition, including:
a) change from baseline in pain visual analog scale (VAS) score assessed at Weeks 1, 2, 4, 8, and 12;
b) change from baseline in the Western Ontario and McMaster Universities Arthritis Index (WOMAC) assessed at Weeks 1, 2, 4, 8, and 12;
c) change from baseline OA pain as assessed by the WOMAC pain subscale at Weeks 1, 2, 4, 8, and 12;
d) change from baseline OA as assessed by the physician global assessment of disease activity at Weeks 1, 2, 4, 8, and 12;
e) change from baseline in total cartilage volume and thickness in the compartments of the target knee joint as documented by Mill at Week 12;
f) changes from baseline in anabolic or catabolic biomarkers indicative of cartilage synthesis or degradation (cartilage oligomeric matrix protein [COMP], N-terminal propeptides of procollagen type I [PINP], and β-C-terminal telopeptide [(3-CTX]) at Weeks 4 and 12;
g) change from baseline in plasma levels of cytokines related to inflammation (interleukin [IL] 1b, IL6, IL8, tumor necrosis factor (TNF), and interferon-alpha [IFNα]) at Weeks 4 and 12; and
h) change from baseline in bone marrow edema as documented by Mill scan of the target knee at baseline and at Week 12.

[3] = subject Treatment 1, Week 12 vs baseline
[4] = subject Treatment 2, Week 12 vs baseline
[5] = subject Treatment 3, Week 12 vs baseline
[6] = subject Treatment 4, Week 12 vs baseline

CC(C)CC(=O)Nc1cncc(-c2ccc3[nH]nc(-c4nc5c(-c6cccc(F)c6)cncc5[nH]4)c3c2)c1 [compound of Formula (I)]
finding at the injection site of high-dose animals (synovium and extra-articular tissues) ([1]; in vivo): local inflammatory response | no observed adverse effect level (NOAEL) ([1]; in vivo): 1.75 mg/knee | histopathological effects in the bone and cartilage ([1]; single IA injection 0.07, 1.75 and 35 mg): no adverse histopathological effects | chondrocyte colonies/well (Human MSCs; 1.88 nM to 30 nM, FIG. 17): dose-dependent chondrogenesis | chondrogenesis (Nile Red and Rhodamine B staining) (Human MSCs; human MSCs, 7 or 21 days, fold change over DMSO, FIGS. 16A, 16B): dose dependent increase in chondrogenesis | secreted GAG (secreted GAG): reduced | Change in WOMAC score [2, 3]: −56 | Change in cartilage thickness [2, 3]: 1.2 | Week 12 cartilage thickness (mm) ([2]; subject Treatment 1, baseline 14.01): 15.21 mm | Week 12 WOMAC score ([2]; subject Treatment 1, baseline 56): 0 | Change in WOMAC score [2, 4]: −30 | Change in cartilage thickness [2, 4]: 1.2 | Week 12 cartilage thickness (mm) ([2]; subject Treatment 2, baseline 12.12): 13.32 mm | Week 12 WOMAC score ([2]; subject Treatment 2, baseline 51): 21 | Change in WOMAC score [2, 5]: −27 | Change in cartilage thickness [2, 5]: 1.3 | Week 12 cartilage thickness (mm) ([2]; subject Treatment 3, baseline 13.22): 14.52 mm | Week 12 WOMAC score ([2]; subject Treatment 3, baseline 59): 32 | Change in WOMAC score [2, 6]: −38 | Change in cartilage thickness [2, 6]: 1.44 | Week 12 cartilage thickness (mm) ([2]; subject Treatment 4, baseline 9.89): 11.33 mm | Week 12 WOMAC score ([2]; subject Treatment 4, baseline 61): 23
